In ChEMBL document CHEMBL3046890, “Synthesis and Herbicidal Activity of Sulfonylureas; SL-950 and Its Related Compounds” (1995):

Assays:
Format in all cases: functional
[1] = system: Persicaria lapathifolia; test: Post-emergence herbicidal activity against three-leaf stage Persicaria lapathifolia assessed as efficacy of weed growth control at 40 g ai/ha under greenhouse conditions
[2] = system: Chenopodium album; test: Post emergence herbicidal activity against two-leaf stage Chenopodium album assessed as efficacy of weed growth control at 40 g ai/ha under greenhouse conditions
[3] = system: Persicaria longiseta; test: Post-emergence herbicidal activity against Persicaria longiseta assessed as inhibition of weed growth at 125 g ai/ha measured 22 to 37 days after compound application under greenhouse conditions; details: read-out: GI
[4] = system: Capsella bursa-pastoris; test: Post-emergence herbicidal activity against four-leafstage Capsella bursa-pastoris assessed as efficacy of weed growth control at 40 g ai/ha under greenhouse conditions
[5] = system: Cynodon dactylon; test: Post-emergence herbicidal activity against 15 cm leaf stage Cynodon dactylon assessed as efficacy of weed growth control at 750 g ai/ha under greenhouse conditions
[6] = system: Commelina communis; test: Post emergence herbicidal activity against two-leaf stage Commelina communis (Asiatic dayflower) assessed as efficacy of weed growth control at 750 g ai/ha under greenhouse conditions
[7] = system: Digitaria sanguinalis; test: Post-emergence herbicidal activity against two-leaf stage Digitaria sanguinalis (hairy crabgrass) assessed as efficacy of weed growth control at 80 g ai/ha under greenhouse conditions
[8] = system: Cyperus rotundus; test: Post-emergence herbicidal activity against four to five-leaf stage Cyperus rotundus assessed as efficacy of weed growth control at 60 g ai/ha under greenhouse conditions
[9] = system: Cynodon dactylon; test: Post-emergence herbicidal activity against 15 cm leaf stage Cynodon dactylon assessed as efficacy of weed growth control at 60 g ai/ha under greenhouse conditions
[10] = system: Elymus repens; test: Post-emergence herbicidal activity against three to four-leaf stage Elymus repens (couch grass) assessed as efficacy of weed growth control at 60 g ai/ha under greenhouse conditions
[11] = system: Sorghum halepense; test: Post emergence herbicidal activity against four to five-leaf stage Sorghum halepense (Johnson grass) assessed as efficacy of weed growth control at 60 g ai/ha under greenhouse conditions
[12] = system: Solanum nigrum; test: Post emergence herbicidal activity against four-leaf stage Solanum nigrum (black nightshade) assessed as efficacy of weed growth control at 60 g ai/ha under greenhouse conditions
[13] = system: Senna tora; test: Post-emergence herbicidal activity against one-leaf stage Senna tora assessed as efficacy of weed growth control at 60 g ai/ha under greenhouse conditions
[14] = system: Sida spinosa; test: Post-emergence herbicidal activity against two-leaf stage Sida spinosa assessed as efficacy of weed growth control at 60 g ai/ha under greenhouse conditions
[15] = system: Persicaria lapathifolia; test: Post-emergence herbicidal activity against three-leaf stage Persicaria lapathifolia assessed as efficacy of weed growth control at 60 g ai/ha under greenhouse conditions
[16] = system: Stellaria media; test: Post-emergence herbicidal activity against eight-leaf stage Stellaria media assessed as efficacy of weed growth control at 60 g ai/ha under greenhouse conditions
[17] = system: Cyperus microiria; test: Post-emergence herbicidal activity against three-leaf stage Cyperus microiria assessed as efficacy of weed growth control at 60 g ai/ha under greenhouse conditions
[18] = system: Avena fatua; test: Post emergence herbicidal activity against three-leaf stage Avena fatua assessed as efficacy of weed growth control at 60 g ai/ha under greenhouse conditions
[19] = system: Avena fatua; test: Post-emergence herbicidal activity against three-leaf stage Avena fatua assessed as efficacy of weed growth control at 80 g ai/ha under greenhouse conditions
[20] = system: Eleusine indica; test: Post-emergence herbicidal activity against three-leaf stage Eleusine indica assessed as efficacy of weed growth control at 80 g ai/ha under greenhouse conditions
[21] = system: Setaria viridis; test: Post-emergence herbicidal activity against two-leaf stage Setaria viridis (green foxtail) assessed as efficacy of weed growth control at 80 g ai/ha under greenhouse conditions
[22] = system: Stellaria media; test: Post-emergence herbicidal activity against eight-leaf stage Stellaria media assessed as efficacy of weed growth control at 40 g ai/ha under greenhouse conditions
[23] = system: Elymus repens; test: Post-emergence herbicidal activity against three to four-leaf stage Elymus repens (couch grass) assessed as efficacy of weed growth control at 40 g ai/ha under greenhouse conditions
[24] = system: Cyperus microiria; test: Post-emergence herbicidal activity against three-leaf stage Cyperus microiria assessed as efficacy of weed growth control at 750 g ai/ha under greenhouse conditions
[25] = system: Avena fatua; test: Post emergence herbicidal activity against three-leaf stage Avena fatua assessed as efficacy of weed growth control at 750 g ai/ha under greenhouse conditions
[26] = system: Eleusine indica; test: Post emergence herbicidal activity against three-leaf stage Eleusine indica assessed as efficacy of weed growth control at 750 g ai/ha under greenhouse conditions
[27] = system: Setaria viridis; test: Post-emergence herbicidal activity against two-leaf stage Setaria viridis (green foxtail) assessed as efficacy of weed growth control at 750 g ai/ha under greenhouse conditions
[28] = system: Digitaria sanguinalis; test: Post-emergence herbicidal activity against two-leaf stage Digitaria sanguinalis (hairy crabgrass) assessed as efficacy of weed growth control at 750 g ai/ha under greenhouse conditions
[29] = system: Cyperus rotundus; test: Post-emergence herbicidal activity against four to five-leaf stage Cyperus rotundus assessed as efficacy of weed growth control at 80 g ai/ha under greenhouse conditions
[30] = system: Cynodon dactylon; test: Post-emergence herbicidal activity against 15 cm leaf stage Cynodon dactylon assessed as efficacy of weed growth control at 80 g ai/ha under greenhouse conditions
[31] = system: Abutilon theophrasti; test: Post-emergence herbicidal activity against one-leaf stage Abutilon theophrasti (velvetleaf) assessed as efficacy of weed growth control at 750 g ai/ha under greenhouse conditions
[32] = system: Chenopodium album; test: Post-emergence herbicidal activity against two-leaf stage Chenopodium album assessed as efficacy of weed growth control at 750 g ai/ha under greenhouse conditions
[33] = system: Persicaria lapathifolia; test: Post-emergence herbicidal activity against three-leaf stage Persicaria lapathifolia assessed as efficacy of weed growth control at 750 g ai/ha under greenhouse conditions
[34] = system: Stellaria media; test: Post-emergence herbicidal activity against eight-leaf stage Stellaria media assessed as efficacy of weed growth control at 750 g ai/ha under greenhouse conditions
[35] = system: Elymus repens; test: Post-emergence herbicidal activity against three to four-leaf stage Elymus repens (couch grass) assessed as efficacy of weed growth control at 80 g ai/ha under greenhouse conditions
[36] = system: Capsella bursa-pastoris; test: Post-emergence herbicidal activity against four-leaf stage Capsella bursa-pastoris assessed as efficacy of weed growth control at 80 g ai/ha under greenhouse conditions
[37] = system: Portulaca oleracea; test: Post-emergence herbicidal activity against three-leaf stage Portulaca oleracea assessed as efficacy of weed growth control at 80 g ai/ha under greenhouse conditions
[38] = system: Solanum nigrum; test: Post emergence herbicidal activity against four-leaf stage Solanum nigrum (black nightshade) assessed as efficacy of weed growth control at 80 g ai/ha under greenhouse conditions
[39] = system: Abutilon theophrasti; test: Post-emergence herbicidal activity against one-leaf stage Abutilon theophrasti (velvetleaf) assessed as efficacy of weed growth control at 80 g ai/ha under greenhouse conditions
[40] = system: Sida spinosa; test: Post-emergence herbicidal activity against two-leaf stage Sida spinosa assessed as efficacy of weed growth control at 80 g ai/ha under greenhouse conditions
[41] = system: Stellaria media; test: Post-emergence herbicidal activity against eight-leaf stage Stellaria media assessed as efficacy of weed growth control at 80 g ai/ha under greenhouse conditions

Molecule `COc1cc(OC)nc(NC(=O)NS(=O)(=O)c2ncccc2C(=O)N(C)C)n1` [NICOSULFURON] has an Efficacy [1] of 70%, an Efficacy [2] of 50% and an inhibition of growth at 125 g/ha [3] of 100%. The Efficacy [4] was 70%, the Efficacy [5] was under 50% and the Efficacy [6] was 95%. It also gave an Efficacy [7] of 95%, an Efficacy [8] of 70% and an Efficacy [9] of under 50%. It also gave an Efficacy [10] of 95%, an Efficacy [11] of 95% and an Efficacy [12] of 50%. For the same molecule, the Efficacy [13] was 50%, the Efficacy [14] was 50% and the Efficacy [15] was 95%. It also gave an Efficacy [16] of 95%, an Efficacy [17] of 95% and an Efficacy [18] of 95%. For the same molecule, the Efficacy [19] was 95%, the Efficacy [20] was 95% and the Efficacy [21] was 95%. The Efficacy [22] was 70%, the Efficacy [23] was 70% and the Efficacy [24] was 95%. It also gave an Efficacy [25] of under 50%, an Efficacy [26] of under 50% and an Efficacy [27] of 70%. It also gave an Efficacy [28] of under 50%, an Efficacy [29] of 70% and an Efficacy [30] of under 50%. The Efficacy [31] was 95%, the Efficacy [32] was 95% and the Efficacy [33] was 95%. The Efficacy [34] was 95%, the Efficacy [35] was 95% and the Efficacy [36] was 95%. It also gave an Efficacy [37] of 95%, an Efficacy [38] of 70% and an Efficacy [39] of 70%. For the same molecule, the Efficacy [40] was 70% and the Efficacy [41] was 95%.
